Experimental data published in ChEMBL document CHEMBL4368866, “Discovery of a 3,4,5-trisubstituted-1,2,4-triazole agonist with high affinity and selectivity at the somatostatin subtype-4 (sst4) receptor” (Medchemcomm, 2018).

Tests used:
[1] = molecular target: T1, Somatostatin receptor type 4 (Homo sapiens, UniProt P31391); assay: Displacement of [125I]-Tyr-SRIF from recombinant human SST4 receptor expressed in CHOK1 cell membranes after 90 mins by gamma counting method
[2] = molecular target: T2, Somatostatin receptor type 2 (Homo sapiens, UniProt P30874); assay: Displacement of [125I]-Tyr-SRIF from recombinant human SST2A receptor expressed in CHOK1 cell membranes after 90 mins by gamma counting method
T2 sequence (P30874 whole entry): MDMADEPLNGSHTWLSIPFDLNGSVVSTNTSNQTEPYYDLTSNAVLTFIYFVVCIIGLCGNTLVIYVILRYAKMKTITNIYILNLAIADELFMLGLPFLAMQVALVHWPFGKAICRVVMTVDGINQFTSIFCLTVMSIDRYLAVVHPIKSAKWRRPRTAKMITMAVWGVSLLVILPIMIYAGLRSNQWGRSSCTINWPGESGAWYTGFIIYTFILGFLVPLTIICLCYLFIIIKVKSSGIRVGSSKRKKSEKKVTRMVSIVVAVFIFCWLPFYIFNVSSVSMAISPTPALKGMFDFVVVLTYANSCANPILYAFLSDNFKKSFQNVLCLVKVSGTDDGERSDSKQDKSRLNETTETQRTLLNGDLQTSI

[3] = molecular target: Somatostatin receptor type 3 (Homo sapiens, UniProt P32745); assay: Displacement of [125I]-Tyr-SRIF from SST3 receptor (unknown origin) after 90 mins by gamma counting method
Chain of Somatostatin receptor type 3 (P32745 whole entry): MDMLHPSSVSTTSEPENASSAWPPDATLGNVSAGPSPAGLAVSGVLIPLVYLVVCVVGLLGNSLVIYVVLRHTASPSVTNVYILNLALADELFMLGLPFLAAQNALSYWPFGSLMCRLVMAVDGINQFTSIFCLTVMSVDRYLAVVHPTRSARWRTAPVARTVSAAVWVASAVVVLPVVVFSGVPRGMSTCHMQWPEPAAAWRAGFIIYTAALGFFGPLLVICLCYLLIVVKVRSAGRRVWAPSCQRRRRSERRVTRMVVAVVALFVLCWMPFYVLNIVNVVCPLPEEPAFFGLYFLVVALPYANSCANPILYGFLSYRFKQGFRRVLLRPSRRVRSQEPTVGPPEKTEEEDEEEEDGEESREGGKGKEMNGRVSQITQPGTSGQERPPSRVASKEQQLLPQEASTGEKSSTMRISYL

[4] = molecular target: Somatostatin receptor type 5 (Homo sapiens, UniProt P35346); assay: Displacement of [125I]-Tyr-SRIF from SST5 receptor (unknown origin) after 90 mins by gamma counting method
Chain of Somatostatin receptor type 5 (P35346 whole entry): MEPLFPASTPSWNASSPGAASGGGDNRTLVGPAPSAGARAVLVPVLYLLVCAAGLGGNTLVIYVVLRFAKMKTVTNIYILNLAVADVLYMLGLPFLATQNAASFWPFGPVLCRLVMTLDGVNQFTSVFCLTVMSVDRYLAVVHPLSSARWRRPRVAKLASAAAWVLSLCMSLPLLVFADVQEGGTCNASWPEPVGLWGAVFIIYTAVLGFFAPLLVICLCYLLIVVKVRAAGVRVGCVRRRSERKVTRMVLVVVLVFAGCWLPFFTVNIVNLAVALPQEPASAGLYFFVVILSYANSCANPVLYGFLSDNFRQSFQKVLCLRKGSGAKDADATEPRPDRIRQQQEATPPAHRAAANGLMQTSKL

[5] = molecular target: T1, Somatostatin receptor type 4; assay: Agonist activity at recombinant human SST4 receptor expressed in CHOK1 cell membranes assessed as inhibition of forskolin-stimulated cAMP accumulation measured after 2.5 to 20 hrs by TR-FRET assay; format: functional, cell-based
[6] = molecular target: Somatostatin receptor type 1 (Homo sapiens, UniProt P30872); assay: Displacement of [125I]-Tyr-SRIF from SST1 receptor (unknown origin) after 90 mins by gamma counting method
Chain of Somatostatin receptor type 1 (P30872 whole entry): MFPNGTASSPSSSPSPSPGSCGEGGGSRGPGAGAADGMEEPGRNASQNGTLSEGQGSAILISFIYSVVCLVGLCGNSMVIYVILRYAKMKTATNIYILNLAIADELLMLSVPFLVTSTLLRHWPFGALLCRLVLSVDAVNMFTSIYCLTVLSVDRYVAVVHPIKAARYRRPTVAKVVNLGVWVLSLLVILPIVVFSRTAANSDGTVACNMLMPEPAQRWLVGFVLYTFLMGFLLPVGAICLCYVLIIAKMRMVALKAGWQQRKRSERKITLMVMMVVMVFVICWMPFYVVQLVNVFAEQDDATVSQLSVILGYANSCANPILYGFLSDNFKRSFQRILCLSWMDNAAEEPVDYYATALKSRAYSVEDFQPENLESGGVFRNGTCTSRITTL

[7] = species: Homo sapiens; assay: Selectivity ratio of Ki for displacement of [125I]-Tyr-SRIF from SST1 receptor (unknown origin) to Ki for displacement of [125I]-Tyr-SRIF from recombinant human SST4 receptor expressed in CHOK1 cell membranes
[8] = species: Homo sapiens; assay: Selectivity ratio of Ki for displacement of [125I]-Tyr-SRIF from recombinant human SST2A receptor expressed in CHOK1 cell membranes to Ki for displacement of [125I]-Tyr-SRIF from recombinant human SST4 receptor expressed in CHOK1 cell membranes
[9] = species: Homo sapiens; assay: Selectivity ratio of Ki for displacement of [125I]-Tyr-SRIF from SST3 receptor (unknown origin) to Ki for displacement of [125I]-Tyr-SRIF from recombinant human SST4 receptor expressed in CHOK1 cell membranes
[10] = species: Homo sapiens; assay: Selectivity ratio of Ki for displacement of [125I]-Tyr-SRIF from SST5 receptor (unknown origin) to Ki for displacement of [125I]-Tyr-SRIF from recombinant human SST4 receptor expressed in CHOK1 cell membranes
[11] = molecular target: T1, Somatostatin receptor type 4; assay: Displacement of 3-[125I]iodotyrosyl25-somatostatin-28 from recombinant human SST4 receptor expressed in CHOK1 cell membranes after 45 mins by scintillation counting method
[12] = molecular target: T2, Somatostatin receptor type 2; assay: Displacement of 3-[125I]iodotyrosyl25-somatostatin-28 from recombinant human SST2 receptor expressed in CHOK1 cell membranes after 45 mins by scintillation counting method
[13] = molecular target: T2, Somatostatin receptor type 2; assay: Displacement of [125I]-LTT-SRIF-28 from recombinant human SST2 receptor expressed in CHO cell membranes after 60 mins by scintillation counting method

T1 sequence (P31391 whole entry): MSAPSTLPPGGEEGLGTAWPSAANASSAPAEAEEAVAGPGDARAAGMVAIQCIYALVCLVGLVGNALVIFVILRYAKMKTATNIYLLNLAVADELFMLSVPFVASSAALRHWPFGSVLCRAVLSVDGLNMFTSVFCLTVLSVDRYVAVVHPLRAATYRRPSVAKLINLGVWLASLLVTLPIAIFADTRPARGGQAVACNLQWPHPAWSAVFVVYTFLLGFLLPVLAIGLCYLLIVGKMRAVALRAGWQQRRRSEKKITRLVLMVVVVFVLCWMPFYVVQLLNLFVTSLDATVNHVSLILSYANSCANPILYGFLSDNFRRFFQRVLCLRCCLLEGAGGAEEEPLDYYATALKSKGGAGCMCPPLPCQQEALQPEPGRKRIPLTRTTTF

| Structure (SMILES) | Ki [1] [µM] | Ki [2] [µM] | further results |
| --- | --- | --- | --- |
| c1ccc(Cn2c(CCc3c[nH]cn3)nnc2Cc2c[nH]c3ccccc23)cc1 | > 10 | – | – |
| NCCCc1nnc(Cc2c[nH]c3ccccc23)n1Cc1ccccc1 | > 10 | – | – |
| c1ccc(CCn2c(CCc3c[nH]cn3)nnc2CCc2c[nH]c3ccccc23)cc1 | 2.03 | > 10 | – |
| Clc1ccc(Cc2nnc(C3CCNCC3)n2CCc2c[nH]c3ccccc23)cc1Cl | > 10 | – | – |
| NCCCc1nnc(CCc2c[nH]c3ccccc23)n1Cc1ccccc1 | < 10 | > 10 | – |
| c1ccc(Cn2c(CCc3c[nH]c4ccccc34)nnc2C2CCNCC2)cc1 | > 10 | > 10 | – |
| NCCCc1nnc(Cc2c[nH]c3ccccc23)n1Cc1ccc(Cl)c(Cl)c1 | > 10 | > 10 | – |
| Clc1ccc(Cn2c(Cc3c[nH]c4ccccc34)nnc2C2CCNCC2)cc1Cl | > 10 | – | – |
| Clc1ccc(Cn2c(CCc3c[nH]c4ccccc34)nnc2C2CCNCC2)cc1Cl | > 10 | > 10 | – |
| COC(=O)[C@H](CCCN=C(N)N)NC(=O)CCCc1c(-c2ccccc2)[nH]c2c(F)cc(F)cc12 | – | – | Ki [11]: 0.0007 µM; Ki [12]: 4.72 µM |
| c1ccc(Cn2c(CCc3c[nH]cn3)nnc2CCc2c[nH]c3ccccc23)cc1 | 4.47 | – | – |
| c1ccc(Cn2c(Cc3c[nH]c4ccccc34)nnc2C2CCNCC2)cc1 | > 10 | > 10 | – |
| Cc1ccc(S(=O)(=O)N[C@@H](CCN)C(=O)N[C@@H](Cc2ccccc2)C(N)=O)c2ccccc12 | – | – | Ki [13]: > 5 µM |

Further lines, with some results ahead:

| Ki [1] [µM] | Ki [2] [µM] | Structure (SMILES) | further results |
| --- | --- | --- | --- |
| > 10 | > 10 | NCCCc1nnc(CCc2c[nH]c3ccccc23)n1Cc1ccc(Cl)c(Cl)c1 | – |
| > 10 | – | NCCCc1nnc(Cc2ccc(Cl)c(Cl)c2)n1CCc1c[nH]c2ccccc12 | – |
| 1.43 | > 10 | Clc1ccc(Cn2c(CCc3c[nH]cn3)nnc2CCc2c[nH]c3ccccc23)cc1Cl | – |
| 0.019 | > 10 | Clc1ccc(Cc2nnc(CCc3c[nH]c4ccccc34)n2CCCc2c[nH]cn2)cc1Cl | Ki [3]: 6.63 µM; Ki [4]: > 10 µM; EC50 [5]: 0.0068 µM; Ki [6]: 4.75 µM; Ratio Ki [7]: 250; Ratio Ki [8]: > 500; Ratio Ki [9]: 350; Ratio Ki [10]: > 500 |
| > 10 | > 10 | Clc1ccc(Cn2c(CCc3c[nH]cn3)nnc2Cc2c[nH]c3ccccc23)cc1Cl | – |
| 4.8 | > 10 | Clc1ccc(Cc2nnc(CCc3c[nH]cn3)n2CCc2c[nH]c3ccccc23)cc1Cl | – |
| 2.38 | > 10 | NCCCn1c(CCc2c[nH]c3ccccc23)nnc1Cc1ccc(Cl)c(Cl)c1 | – |
